Where a name gives a salt, the structure may show the parent alone. Read-outs that look alike come from different tables or passages of the source.
Legend:
[1] = molecular target: T1, [3H]-citalopram binding sites on rat cerebral cortical membranes (serotonin reuptake) (Rattus norvegicus, UniProt P31652); test: [3H]-Citalopram binding assay
T1 construct: from tissue; host or cells: rat cerebral cortex membranes

[2] = displacement of [3H]-citalopram, rat cerebral cortical membranes, 37° C. for 90 minutes, read-out: Ki

T1 sequence (P31652 whole entry): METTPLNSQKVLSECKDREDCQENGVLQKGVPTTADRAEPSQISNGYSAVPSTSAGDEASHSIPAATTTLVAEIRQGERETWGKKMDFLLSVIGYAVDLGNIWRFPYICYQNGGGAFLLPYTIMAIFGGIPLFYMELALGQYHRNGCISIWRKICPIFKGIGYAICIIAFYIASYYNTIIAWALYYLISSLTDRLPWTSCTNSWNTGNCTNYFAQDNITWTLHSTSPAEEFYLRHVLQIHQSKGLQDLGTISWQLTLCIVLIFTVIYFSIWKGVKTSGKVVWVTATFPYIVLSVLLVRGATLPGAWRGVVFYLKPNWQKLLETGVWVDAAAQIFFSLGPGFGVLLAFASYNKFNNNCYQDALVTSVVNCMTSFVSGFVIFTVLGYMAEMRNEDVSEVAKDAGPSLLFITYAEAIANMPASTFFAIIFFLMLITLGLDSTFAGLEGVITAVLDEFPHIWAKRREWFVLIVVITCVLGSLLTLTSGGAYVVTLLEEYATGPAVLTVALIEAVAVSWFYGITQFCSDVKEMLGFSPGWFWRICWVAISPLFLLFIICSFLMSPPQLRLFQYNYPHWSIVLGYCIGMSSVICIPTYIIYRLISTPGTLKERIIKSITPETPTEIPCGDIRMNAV

Structure (SMILES)	melting point [°C]	Ki [1, 2] [nM]	also measured
CN(C)C[C@H]1[C@H]2CC[C@H](C2)[C@@H]1c1ccc2ccsc2c1 (as salt: hydrochloride)	240 to 242	–	–
Cc1csc2ccc([C@@H]3[C@H]4CC[C@H](C4)[C@H]3CN(C)C)cc12 (as salt: hydrochloride) [N,N-dimethyl[(1R,2R,3R,4S)-3-(3-methyl-1-benzothien-5-yl)bicyclo[2.2.1]hept-2-yl]methanamine]	250 to 252	–	–
CN(C)C[C@H]1[C@H]2CC[C@H](C2)[C@@H]1c1ccc2cc(F)ccc2c1 (as salt: hydrochloride) [[(1S,2S,3S,4R)-3-(6-fluoro-2-naphthyl)bicyclo[2.2.1]hept-2-yl]-N,N-dimethylmethanamine]	137 to 138	–	–
CN(C)CC1C2CCC(C2)C1c1ccc2ccccc2c1 (stereo not drawn) (as salt: hydrochloride) [cis- N,N-dimethyl(3-naphthalen-2-ylbicyclo[2.2.1]hept-2-yl)m] [cis-N,N-dimethyl (3-naphthalen-2-ylbicyclo[2.2.1]hept-2-yl)methanamine]	255 to 257	–	–
CN(C)CC1C2CCC(C2)C1c1ccc2ccccc2c1 (stereo not drawn) (as salt: hydrochloride) [trans-endo-N,N-dimethyl(3-naphthalen-2-ylbicyclo[2.2.1]hept-] [trans-endo-N,N-dimethyl(3-naphthalen-2-ylbicyclo[2.2.1]hept-2-yl)methanamine]	249 to 250	–	–
Cc1csc2ccc([C@@H]3[C@H]4CC[C@H](C4)[C@H]3CN(C)C)cc12 [N,N-dimethyl[(1R,2R,3R,4S)-3-(3-methyl-1-benzothien-5-yl)bicyclo[2.2.1]hept-2-yl]methanamine]	–	< 100	–
CN(C)C[C@H]1[C@H]2CC[C@H](C2)[C@@H]1c1cc2ccc(F)cc2s1 [[(1S,2S,3S,4R)-3-(6-fluoro-1-benzothien-2-yl)bicyclo[2.2.1]hept-2-yl)-N,N-dimethylmethanamine]	–	< 100	–
CN(C)C[C@H]1[C@H]2CC[C@H](C2)[C@@H]1c1csc2cc(F)ccc12 [[(1S,2S,3S,4R)-3-(6-fluoro-1-benzothien-3-yl)bicyclo[2.2.1]hept-2-yl]-N,N-dimethylmethanamine]	–	< 100	–
CN(C)C[C@H]1[C@H]2CC[C@H](C2)[C@@H]1c1ccc2cc(F)ccc2c1 [[(1S,2S,3S,4R)-3-(6-fluoro-2-naphthyl)bicyclo[2.2.1]hept-2-yl]-N,N-dimethylmethanamine]	–	–	Ki [1]: < 100 nM
NCC1C2CCC(CC2)C1c1ccc2ccccc2c1 (stereo not drawn) [trans-(3-Naphthalen-2-ylbicyclo[2.2 .2]oct-2-yl)methanamine]	–	< 100	–
CN(C)CC1C2CCC(C2)C1c1ccc2ccccc2c1 (stereo not drawn) [trans-endo-N,N-dimethyl(3-naphthalen-2-ylbicyclo[2.2.1]hept-2-yl)methanamine]	–	–	Ki [1]: < 100 nM
CNCC1C2CCC(C2)C1c1ccc2ccccc2c1 (stereo not drawn) [trans-endo-N-methyl (3-naphthalen-2-ylbicyclo [2.2.1]hept-2-yl)methanamine]	–	–	Ki [1]: < 100 nM
